Test results taken from the supplement of paper PMC10307832.

Key:
Experiment in all cases: relative viability (nuclei count vs DMSO), 5 days (fraction); higher = more cells survive
[1] = compound: COC1=CC=C(C=C1)CN2C=CC3=C2C=C(C=C3)C(=O)NO + CC1(C)CCC(c2ccc(Cl)cc2)=C(CN2CCN(c3ccc(C(=O)NS(=O)(=O)c4ccc(N[C@H](CCN5CCOCC5)CSc5ccccc5)c(S(=O)(=O)C(F)(F)F)c4)cc3)CC2)C1 [Navitoclax] (partner 0.5 µM)
How it was run: (§1)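 Relative viability divides the nuclei count in treated wells by that in vehicle wells. Lung cancer cell lines were seeded in 1536-well plates, dosed by pin tool the next day, and fixed and stained after 5 days in one step with final 0.05% Triton X-100, 1% formaldehyde and 1 ug/ml Hoechst. Dosing was a single drug or a fixed anchor-drug dose plus five library-drug doses (not always all listed) in √10 steps, and values are medians of duplicate plates imaged at 4×.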

[2] = compound: COC1=CC=C(C=C1)CN2C=CC3=C2C=C(C=C3)C(=O)NO + N=C(N)NC(=N)NCCc1ccccc1 [Phenformin] (partner 250 µM)
How it was run: as §1

Veliparib + Luminespib = compound: C[C@]1(c2nc3c(C(N)=O)cccc3[nH]2)CCCN1 [Veliparib] + CCNC(=O)c1noc(-c2cc(C(C)C)c(O)cc2O)c1-c1ccc(CN2CCOCC2)cc1 [Luminespib] (partner 0.01 µM)
How it was run: as §1

Veliparib + Alpelisib = compound: C[C@]1(c2nc3c(C(N)=O)cccc3[nH]2)CCCN1 [Veliparib] + Cc1nc(NC(=O)N2CCC[C@H]2C(N)=O)sc1-c1ccnc(C(C)(C)C(F)(F)F)c1 [Alpelisib] (partner 2 µM)
How it was run: as §1

| Cell Line | relative viability ([1]; first compound 0.08 µM) | relative viability ([1]; first compound 0.253 µM) | relative viability ([1]; first compound 0.8 µM) | relative viability ([1]; first compound 2.53 µM) | relative viability ([1]; first compound 8 µM) | relative viability ([2]; first compound 0.08 µM) | relative viability ([2]; first compound 0.253 µM) | relative viability ([2]; first compound 0.8 µM) | relative viability ([2]; first compound 2.53 µM) | relative viability ([2]; first compound 8 µM) | relative viability (Veliparib + Luminespib; first compound 0.02 µM) | relative viability (Veliparib + Luminespib; first compound 0.2 µM) | relative viability (Veliparib + Luminespib; first compound 0.6325 µM) | relative viability (Veliparib + Luminespib; first compound 2 µM) | relative viability (Veliparib + Alpelisib; first compound 0.02 µM) | relative viability (Veliparib + Alpelisib; first compound 0.06325 µM) | relative viability (Veliparib + Alpelisib; first compound 0.2 µM) | relative viability (Veliparib + Alpelisib; first compound 0.6325 µM) | relative viability (Veliparib + Alpelisib; first compound 2 µM) | relative viability (Veliparib + Luminespib; first compound 0.06325 µM) |
| --- | --- | --- | --- | --- | --- | --- | --- | --- | --- | --- | --- | --- | --- | --- | --- | --- | --- | --- | --- | --- |
| NCI-H23 | 0.675 | 0.689 | 0.896 | 0.985 | 0.728 | 0.699 | 0.843 | 0.852 | 0.712 | 0.653 | 0.168 | 0.251 | 0.24 | 0.228 | 0.662 | 0.623 | 0.749 | 0.564 | 0.713 |  |
| NCI-H322M |  | 1.1 | 1.13 | 1.18 | 1.24 |  | 0.821 | 0.762 | 0.737 | 0.763 |  | 0.915 | 0.855 | 0.848 | 0.763 | 0.719 | 0.78 | 0.7 | 0.772 | 0.814 |
| NCI-H441 | 0.611 | 0.708 | 0.701 | 0.523 | 0.595 | 0.914 | 0.89 | 0.907 | 0.863 | 0.653 | 0.316 | 0.377 | 0.339 | 0.375 | 0.735 | 0.886 | 0.716 | 0.737 | 0.671 | 0.288 |
| NCI-H460 | 1.04 | 1.15 | 1.08 | 1.15 | 1.1 | 0.519 | 0.463 | 0.509 | 0.473 | 0.188 | 0.0408 | 0.0384 | 0.0245 | 0.0352 |  | 0.342 | 0.539 | 0.347 | 0.441 | 0.0256 |
| NCI-H520 | 0.279 | 1.18 | 1.27 | 1.15 | 1.09 |  | 0.618 | 0.645 | 0.703 | 0.503 | 0.224 | 0.221 | 0.205 | 0.247 | 0.882 | 1.06 | 0.859 | 0.791 | 1.03 | 0.239 |
| NCI-H596 | 0.944 | 0.906 | 1.07 | 0.963 | 1.04 | 0.774 | 0.99 | 0.769 | 0.655 | 0.666 | 0.975 | 1.17 | 0.889 | 0.919 | 0.516 | 0.497 | 0.541 | 0.472 | 0.526 | 1.02 |
| NCI-H647 |  | 1.04 | 1 | 0.959 | 1.21 | 0.371 | 0.525 | 0.443 | 0.474 | 0.404 | 0.249 | 0.195 | 0.12 | 0.359 | 1.38 | 1.07 | 1.42 | 1.22 | 1.11 | 0.142 |
| NCI-H727 | 0.342 | 0.404 | 0.404 | 0.543 | 0.341 | 0.603 | 0.475 | 0.517 | 0.534 | 0.415 | 0.442 | 0.364 | 0.265 | 0.353 | 0.512 | 0.572 | 0.598 | 0.538 | 0.488 | 0.33 |
| NCI-H838 |  | 1.22 | 1.17 | 1.22 | 1.09 |  | 0.589 | 0.6 | 0.628 | 0.456 | 0.287 | 0.302 | 0.295 | 0.25 | 0.971 | 0.843 | 1.08 | 0.935 | 1 | 0.32 |
| NCI-H1355 | 0.781 | 1 | 0.94 | 1.11 | 0.873 |  | 0.459 | 0.52 | 0.482 | 0.426 |  | 0.664 | 0.658 | 0.62 |  | 0.739 | 0.846 | 0.692 | 0.816 | 0.543 |
| NCI-H1395 | 0.688 | 1.29 | 1.12 | 1.4 | 0.992 | 0.37 | 0.463 | 0.469 | 0.407 | 0.413 | 0.586 | 0.648 | 0.659 | 0.542 |  | 1.37 | 0.873 | 1.09 | 0.74 | 0.624 |
| NCI-H1437 | 0.898 | 1.08 | 1.1 | 1.15 | 1.05 | 0.289 | 0.348 | 0.36 | 0.424 | 0.274 | 0.978 | 1.07 | 1.1 | 1.09 | 0.898 | 0.977 | 0.98 | 0.921 | 0.889 | 1.1 |
| NCI-H1651 | 0.926 | 1.14 | 1.07 | 0.987 | 0.92 | 0.349 | 0.302 | 0.39 | 0.325 | 0.275 | 0.724 | 0.88 | 0.486 | 0.651 | 0.889 | 0.83 | 0.922 | 0.828 | 0.856 | 0.806 |
| NCI-H1666 | 0.85 | 0.893 | 0.988 | 1.26 | 1.06 | 0.559 | 0.558 | 0.557 | 0.579 | 0.523 | 1.01 | 0.968 | 0.941 | 0.982 | 1.04 | 0.709 | 0.857 | 0.829 | 1 | 0.984 |
| NCI-H1734 |  | 0.899 | 0.947 | 0.805 | 0.882 |  | 0.413 | 0.386 | 0.392 | 0.383 | 0.197 | 0.211 | 0.232 | 0.233 | 0.734 | 0.569 | 0.705 | 0.667 | 0.744 | 0.209 |
| NCI-H1755 | 0.949 | 1.02 | 1 | 1.03 | 1.02 | 0.595 | 0.678 | 0.636 | 0.637 | 0.61 | 0.551 | 0.41 | 0.357 | 0.36 | 0.898 | 0.939 | 0.942 | 0.881 | 0.922 | 0.553 |
| NCI-H1792 | 0.574 | 0.55 | 0.481 | 0.646 | 0.601 | 0.455 | 0.358 | 0.29 | 0.19 | 0.129 | 0.509 | 0.508 | 0.429 | 0.331 | 0.678 | 0.592 | 0.799 | 0.65 | 0.645 | 0.361 |
